Assay [1] deals with His tagged Green Fluorescent Protein (GFP). The settings on record: relative to DMSO; FIG. 3.
Experimental: In this assay, His tagged Green Fluorescent Protein (GFP) retention on a divalent metal cation surface is monitored in the presence of analytes.
Stock solutions containing analytes at various concentrations or 500 nL DMSO and controls are transferred into the wells of a CHOICECOAT metal chelate white 384 well plates (Catalog No. NC15140, Pierce Biotechnology, Inc.). The volume is 500 nL per well. Controls include 100 μM unlabeled Peptide 2 and 0.5% DMSO.
An assay solution containing one μg His tagged GFP protein in PBS (per well) is prepared and 50 μL of this assay solution is dispensed into each well of the 384 well plates. The plates are covered and incubated at room temperature for two hours. Following the room temperature incubation, the plates are cooled by incubating in a 4° C. refrigerator for one hour. The plates are then washed by aspirating the well, adding 80 uL of PBS-T, aspirating the well, adding 80 uL of PBS-T, and aspirating the well.
Assay [2] concerns the target T1, His-tagged Keap1-kelch domain polypeptide (Homo sapiens, UniProt Q14145).
T1 construct: the Keap1-kelch domain polypeptide comprises amino acid residues 322 to 609 of the human Keap1 protein; made in house; host or cells: E. coli Rosetta2 BL21 pLysS, plasmid pET15b-Keap1-kelch domain
The assay can be described thus: Antibody-based binding assay, displacement of 3H-labeled Nrf2 Peptide 2. Particulars: Keap1-kelch domain polypeptide immobilized via anti-His tag antibody; about 1 nm to about 100 μM; FIG. 2. The source says:
This example provides a protocol for an antibody-based binding assay for identifying activators of the Nrf2-Keap1 system. Because Keap1 protein's or Keap1-kelch domain polypeptide's binding to the assay plate surface is not dependent on divalent metal cations such as nickel, the antibody-based assay is also useful for determining whether the competitive effect observed in an ion-based assay was a result of the analyte competing with binding of the labeled Peptide 2 with the Keap1-kelch domain or with the binding of the Keap1 protein or Keap1-kelch domain polypeptide with divalent cations on the plate. In general, the assay is performed as follows.
One μg/mL of mouse-derived anti-His tag antibody (Catalog No. 35370, Quiagen, Valencia, Calif.) is added to anti-mouse IgG-coated white plates (Catalog No. 15234, Pierce Biotechnology, Inc.) and incubated at room temperature for two hours. The plate is then washed with four chamber volumes of PBS to remove any excess antibody.
Controls include […] unlabeled Nrf2 Peptide 2 and 0.5% DMSO.
During the last 15 minutes of the 4° C. incubation, one L of cold PBS-T is added to the Liquid 1 wash bottle of the EMBLA 96/384 plate washer (Molecular Devices Corporation, Sunnyvale, Calif.). The instrument is primed using program ‘A1’ a minimum of three times. […]
(Displacement assays read how much labelled ligand stays bound in the presence of the test substance.)

Assay [3] addresses T2, recombinant human His-tagged Keap1-kelch domain polypeptide (human, UniProt Q14145 322-609).
T2 construct: domain: kelch domain; Expressed in E. coli from pET15b between NdeI and BamHI; also called recombinant Keap1-kelch domain; kelch domain of the Keap1 protein; not shown: N-terminal six-histidine tag from vector pET15b
Briefly: method not stated; binding affinity for the kelch domain.

T2 sequence (Q14145 322-609): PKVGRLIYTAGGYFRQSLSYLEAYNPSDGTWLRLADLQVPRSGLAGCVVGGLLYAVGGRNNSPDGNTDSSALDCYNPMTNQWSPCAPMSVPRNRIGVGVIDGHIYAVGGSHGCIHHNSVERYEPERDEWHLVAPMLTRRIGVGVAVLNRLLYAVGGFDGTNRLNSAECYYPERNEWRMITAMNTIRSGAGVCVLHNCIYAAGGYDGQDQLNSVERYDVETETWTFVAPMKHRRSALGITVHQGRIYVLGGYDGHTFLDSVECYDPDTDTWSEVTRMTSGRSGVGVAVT
T1 sequence (Q14145 322-609): as above

Take `CC[C@H](C)[C@H](NC(=O)[C@@H]1CCCN1C(=O)[C@H](CC(C)C)NC(=O)[C@H](Cc1ccccc1)NC(=O)[C@H](CCC(=O)O)NC(=O)CNC(=O)[C@@H](NC(=O)[C@H](CCC(=O)O)NC(=O)[C@H](CCC(=O)O)NC(=O)[C@H](CC(=O)O)NC(=O)[C@H](CC(C)C)NC(=O)[C@H](CCC(N)=O)NC(=O)[C@@H](N)CC(C)C)[C@@H](C)O)C(=O)N[C@@H](CCC(N)=O)C(=O)O` [Peptide 2, NH2-LQLDEETGEFLPIQ-OH]: the “percent inhibition of binding of the GFP to the nickel on the surface of the plate” value in assay [1] is given as 0%. Moreover, in assay [2], the “competition with labeled Peptide 2 for binding to the kelch domain (result in words)” value is recorded as “result from this assay expected for an analyte that competes”.
As to RKRNVESGEEELAS [Pgam5 peptide RKRNVESGEEELAS], in assay [3], the binding affinity is ~626 nM.
Same read-out and setting: the result for LLVDGETGESFPAQ [Nrf1 peptide LLVDGETGESFPAQ] reads ~397 nM.

These data come from patent publication US20100029012A1, “Method for identifying modulators of the NRF2-KEAP1-AREP pathway” (priority 2006, published 2010).
